Series [1] concerns the target T1, Broad substrate specificity ATP-binding cassette transporter ABCG2 (Mus musculus, UniProt Q7TMS5).
T1 sequence (Q7TMS5 whole entry): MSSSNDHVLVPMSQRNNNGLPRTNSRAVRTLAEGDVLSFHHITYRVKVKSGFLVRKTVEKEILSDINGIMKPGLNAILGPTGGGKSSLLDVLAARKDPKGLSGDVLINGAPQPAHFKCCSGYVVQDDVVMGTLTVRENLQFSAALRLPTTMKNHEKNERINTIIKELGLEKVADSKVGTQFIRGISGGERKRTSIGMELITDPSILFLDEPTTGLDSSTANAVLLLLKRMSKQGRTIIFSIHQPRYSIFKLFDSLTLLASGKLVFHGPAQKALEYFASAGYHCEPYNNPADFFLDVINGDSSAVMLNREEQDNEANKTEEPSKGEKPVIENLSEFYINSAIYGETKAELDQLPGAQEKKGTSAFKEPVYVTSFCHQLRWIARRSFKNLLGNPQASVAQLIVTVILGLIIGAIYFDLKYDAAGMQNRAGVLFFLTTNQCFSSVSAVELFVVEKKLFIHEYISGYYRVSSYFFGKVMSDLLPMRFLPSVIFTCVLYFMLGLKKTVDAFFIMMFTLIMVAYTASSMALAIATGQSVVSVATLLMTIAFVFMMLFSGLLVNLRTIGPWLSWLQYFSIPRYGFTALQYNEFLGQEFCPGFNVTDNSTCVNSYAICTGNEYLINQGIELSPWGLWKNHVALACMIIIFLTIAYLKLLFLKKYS
Nature of the series: TP_TRANSPORTER: intracellular accumulation in LY and LY/NR2 cells. The format is functional, cell-based.

In series [2] the target is T2, Broad substrate specificity ATP-binding cassette transporter ABCG2 (Homo sapiens, UniProt Q9UNQ0).
T2 sequence (Q9UNQ0 whole entry): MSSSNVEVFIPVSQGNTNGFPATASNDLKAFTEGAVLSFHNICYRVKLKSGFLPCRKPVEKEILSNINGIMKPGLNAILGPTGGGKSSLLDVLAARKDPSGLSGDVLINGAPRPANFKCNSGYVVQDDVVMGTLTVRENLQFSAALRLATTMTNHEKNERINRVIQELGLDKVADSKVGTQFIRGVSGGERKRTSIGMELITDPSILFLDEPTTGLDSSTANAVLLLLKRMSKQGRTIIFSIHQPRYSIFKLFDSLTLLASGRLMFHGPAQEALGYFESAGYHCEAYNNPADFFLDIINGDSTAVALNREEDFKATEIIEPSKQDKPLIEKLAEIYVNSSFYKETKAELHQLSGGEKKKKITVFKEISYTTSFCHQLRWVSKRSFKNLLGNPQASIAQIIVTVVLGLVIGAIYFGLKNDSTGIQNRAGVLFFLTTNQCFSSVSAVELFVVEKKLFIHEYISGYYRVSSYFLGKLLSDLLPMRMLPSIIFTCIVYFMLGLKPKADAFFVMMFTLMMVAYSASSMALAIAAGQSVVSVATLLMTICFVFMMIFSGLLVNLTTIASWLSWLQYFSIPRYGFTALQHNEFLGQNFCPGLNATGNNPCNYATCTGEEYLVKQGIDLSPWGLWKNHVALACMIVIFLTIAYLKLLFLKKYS
Nature of the series: TP_TRANSPORTER: intracellular accumulation in BCRP-transfected PC-13 cells. The format is functional, cell-based.

Molecules are shown by their SMILES.

As to `O=CNN1C(=O)c2c(c3c4cccc(O)c4n([C@@H]4O[C@H](CO)[C@@H](O)[C@H](O)[C@H]4O)c3c3[nH]c4c(O)cccc4c23)C1=O`, the Activity entry in series [1] was “substrate [+]”. Take `O=C1c2c(c3c4ccc(O)cc4n([C@@H]4O[C@H](CO)[C@@H](O)[C@H](O)[C@H]4O)c3c3[nH]c4cc(O)ccc4c23)C(=O)N1NC(CO)CO` [EDOTECARIN]: the Activity result in series [2] is “substrate [+]”.

For the origin of these results see ChEMBL document CHEMBL2074441, “Identification of breast cancer resistant protein/mitoxantrone resistance/placenta-specific, ATP-binding cassette transporter as a transporter of NB-506 and J-107088, topoisomerase I inhibitors with an indolocarbazole structure” (Cancer Res, 2001).
